Like-named read-outs stand apart in the source and are kept apart here.
Columns and labels:
[1] = test system: cholesterol levels; conditions: cited from earlier work
[2] = test system: apoAI secretion; conditions: cell culture studies; read-out: IC50 for inhibition of apoAI secretion; cited from earlier work
[3] = target: microsomal triglyceride transfer protein (MTP) (Homo sapiens, UniProt P55157); conditions: for mean percent change in apoB / mean percent change in non-HDL cholesterol / mean percent change in total cholesterol: 6 hoFH subjects
Method: This theory was applied in designing a study investigating the safety, tolerability and efficacy of BMS-201038 in patients with homozygous familial hypercholesterolemia (hoFH).
Subjects received once daily dosing of 4 doses of BMS-201038 (0.03, 0.1, 0.3 and 1.0 mg/kg) for 4 weeks at each dose. We chose an initial low dose (0.03 mg/kg) that while not expecting to be efficacious, would be a dose that would be expected to be safe and well tolerated (˜2.1 mg in the 70 kg person) The remaining three doses were chosen by calculating ½ log units of the previous dose.

[4] = dogs, six-month toxicity study, doses 0-10 mg/kg; cited from earlier work
[5] = rats, cited from earlier work
[6] = 25 mg per day for 4 weeks, primary hypercholesterolemia, some patients; cited from earlier work
[7] = test system: apoB secretion; conditions: cell culture studies; read-out: IC50 for inhibition of apoB secretion; cited from earlier work
[8] = test system: low density lipoprotein cholesterol (LDL-C); conditions: cited from earlier work
[9] = test system: LDL-C; conditions: cited from earlier work
[10] = test system: cholesterol; conditions: in vivo; cited from earlier work
[11] = dose of 10 mg/kg, rabbits that lack a functional LDL receptor
[12] = 0.3 mg/kg once daily for 4 weeks (second highest dose)
[13] = 1.0 mg/kg once daily for 4 weeks (highest dose)

microsomal triglyceride transfer protein (MTP), sequence (P55157 19-894): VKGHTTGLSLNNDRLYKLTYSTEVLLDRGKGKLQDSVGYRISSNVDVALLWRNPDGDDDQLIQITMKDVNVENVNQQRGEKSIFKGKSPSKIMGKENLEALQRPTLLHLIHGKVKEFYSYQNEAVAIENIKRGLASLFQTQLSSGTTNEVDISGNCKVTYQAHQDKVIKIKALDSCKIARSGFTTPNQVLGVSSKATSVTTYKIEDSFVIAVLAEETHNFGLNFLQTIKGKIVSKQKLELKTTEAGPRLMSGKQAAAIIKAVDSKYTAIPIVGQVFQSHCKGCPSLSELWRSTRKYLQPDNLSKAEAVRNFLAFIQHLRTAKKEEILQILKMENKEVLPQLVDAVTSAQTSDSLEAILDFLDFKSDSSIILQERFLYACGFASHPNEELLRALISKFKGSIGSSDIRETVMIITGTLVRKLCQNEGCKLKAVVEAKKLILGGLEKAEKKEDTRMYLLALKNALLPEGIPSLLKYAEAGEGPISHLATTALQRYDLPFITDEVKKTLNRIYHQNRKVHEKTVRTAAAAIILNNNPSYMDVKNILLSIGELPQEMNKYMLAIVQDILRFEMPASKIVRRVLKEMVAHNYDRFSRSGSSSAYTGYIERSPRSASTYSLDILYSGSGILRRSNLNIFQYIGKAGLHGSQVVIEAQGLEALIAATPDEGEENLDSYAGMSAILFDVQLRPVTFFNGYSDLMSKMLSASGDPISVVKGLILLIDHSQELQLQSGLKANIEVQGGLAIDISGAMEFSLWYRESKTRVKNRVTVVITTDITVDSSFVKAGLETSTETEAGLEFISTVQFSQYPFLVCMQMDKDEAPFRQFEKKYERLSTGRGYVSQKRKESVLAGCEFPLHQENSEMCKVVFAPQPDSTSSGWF
microsomal triglyceride transfer protein (MTP), sequence (P07237 18-508 partner): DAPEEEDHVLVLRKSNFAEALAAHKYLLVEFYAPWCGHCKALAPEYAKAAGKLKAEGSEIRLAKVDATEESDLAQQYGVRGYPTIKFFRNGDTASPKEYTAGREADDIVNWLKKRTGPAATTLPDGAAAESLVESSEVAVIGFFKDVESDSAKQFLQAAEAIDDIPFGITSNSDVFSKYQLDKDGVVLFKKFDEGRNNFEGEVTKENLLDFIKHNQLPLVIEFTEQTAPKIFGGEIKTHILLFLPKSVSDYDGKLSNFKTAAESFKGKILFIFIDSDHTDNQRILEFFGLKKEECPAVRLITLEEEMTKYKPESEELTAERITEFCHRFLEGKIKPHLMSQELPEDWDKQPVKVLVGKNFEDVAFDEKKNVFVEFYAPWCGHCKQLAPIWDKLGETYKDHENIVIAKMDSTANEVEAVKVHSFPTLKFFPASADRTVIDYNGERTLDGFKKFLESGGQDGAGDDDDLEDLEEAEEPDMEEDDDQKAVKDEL

**Q.** Which LDL cholesterol reduction ([1]; 10 mg/kg, animal study by Wetterau and colleagues) does the source give for `O=C(NC1CCN(CCCCC2(C(=O)NCC(F)(F)F)c3ccccc3-c3ccccc32)CC1)c1ccccc1-c1ccc(C(F)(F)F)cc1` [BMS-201038, N-(2,2,2-Trifluorethyl)-9-[4-[4-[[[4′-(trifluoromethyl) [1,1′biphenyl]-2-Y1]carbonyl]amino]-1-piperidinyl]butyl]9H-fluorene-9-carboxamide, methanesulfonate] here?
**A.** greater than 80%

**Q.** What about the cholesterol levels [1, 11] of the same compound?
**A.** essentially normalized

**Q.** And the “plasma AST or ALT” value [1, 11]?
**A.** no alteration

**Q.** And the “ED50 value for lowering cholesterol” value ([1]; rabbits that lack a functional LDL receptor)?
**A.** 1.9 mg/kg

**Q.** And the IC50 [2]?
**A.** 6.5 µM

**Q.** What about the “mean percent change in apoB” value [3, 12] of the same compound?
**A.** −15±16%

**Q.** And the “mean percent change in non-HDL cholesterol” value [3, 12]?
**A.** −31±9%

**Q.** What about the “mean percent change in total cholesterol” value [3, 12] of the same compound?
**A.** −30±9%

**Q.** And the “mean percent change in apoB” value [3, 13]?
**A.** −55±13%

**Q.** And the “mean percent change in non-HDL cholesterol” value [3, 13]?
**A.** −60±8.8%

**Q.** And the “mean percent change in total cholesterol” value [3, 13]?
**A.** −58±8.5%

**Q.** What about the “increase in hepatic fat by NMRS from baseline to 4 weeks on 1 mg/kg” value ([3]; human, in vivo, 4 weeks) of the same compound?
**A.** 3-37%

**Q.** What about the “subacute inflammation and single-cell necrosis of hepatocytes and histiocytosis (phospholipidosis) in the lungs” value [4] of the same compound?
**A.** not in dogs

**Q.** What about the “doses associated with subacute inflammation and single-cell necrosis of hepatocytes and histiocytosis (phospholipidosis) in the lungs” value ([5]; six-month toxicity study, doses 0-20 mg/kg) of the same compound?
**A.** ≥ 0.2 mg/kg

**Q.** What about the “hepatic accumulation of lipids at the end of a 1-month washout period” value [5] of the same compound?
**A.** reversed

**Q.** What about the “gastrointestinal (GI) symptoms (steatorrhea, abdominal cramping and distention)” value [6] of the same compound?
**A.** clinically significant

**Q.** And the IC50 [7]?
**A.** 0.0008 µM

**Q.** And the “reduction of low density lipoprotein cholesterol (LDL-C)” value ([8]; healthy volunteers with hypercholesterolemia)?
**A.** up to 65%

**Q.** What about the “doses at which gastrointestinal side effects/steatorrhea, elevation of serum transaminases and hepatic fat accumulation were primarily observed” value ([8]; human clinical development) of the same compound?
**A.** ≥ 25 mg/day

**Q.** Which “mean LDL-C reduction” value ([9]; genotype-confirmed hoFH, maximal dose of statins 80 mg/day) does the source give for `CC(C)c1c(C(=O)Nc2ccccc2)c(-c2ccccc2)c(-c2ccc(F)cc2)n1CC[C@@H](O)C[C@@H](O)CC(=O)O` [atorvastatin] here?
**A.** about 5.5%

**Q.** With `O=C1[C@H](CC[C@H](O)c2ccc(F)cc2)[C@@H](c2ccc(O)cc2)N1c1ccc(F)cc1` [ezetimibe] as the compound, how does the “total reduction of LDL-C levels” value ([9]; ezetimibe 10 mg/day added to atorvastatin or simvastatin 80 mg/day, hoFH) read?
**A.** 27%

**Q.** What about the “reduction of LDL cholesterol” value [10] of the same compound?
**A.** about 18%
